# Literature values as cited in patent US9078910B2, “Compositions comprising spicamycin derivatives and methods of use thereof” (DARA BioSciences, Inc., priority 2012, dated 2015).
# System: neuropathic pain
# Settings: Abdi et al. 2000, Kobierski et al. 2003
smiles,measurement,value
"CCCCCCCCC/C=C/C=C/C(=O)NCC(=O)N[C@@H]1[C@@H](O)[C@@H](O)[C@@H](Nc2ncnc3[nH]cnc23)O[C@H]1[C@@H](O)CO [KRN5500, 6-[4-deoxy-4-[(2E,4E)-tetradecadienoylglycyl]amino-L-glycero-β-L-mannoheptopyranosyl]amino-9H-purine]",Efficacy in rat models of neuropathic pain,effective
